Consider 20 molecules from patent publication US20240092739A1, “COMPOUNDS AND METHODS OF USE” (Ferro Therapeutics, Inc, priority 2020, published 2024).

The structures appear in SMILES notation. Like-named read-outs stand apart in the source and are kept apart here.

Experiment [1] deals with A431 cells. As to the kind of experiment: Cell proliferation (Alamar Blue) assay, A431 cells. The format is cell-based. Conditions: Homo sapiens, A-431, A431 cells, Alamar Blue. The method, then: (§1) Cell viability assay was performed to assess the potency of the compounds in human cancer cell lines 786-0 (renal cell carcinoma) and SJSA-1 (osteosarcoma). Additional cell lines, such as pancreatic cancer cell lines (Panc 02.13, BxPC-3, Panc 12, Panc 02.03, Panc 6.03, PSN-1, HPAC, and Capan-1), prostate cancer cell lines (PC-3, DU145, […], NCI-H660, 1PH1 LNCaP, BM-1604, and MDA PCa 2b), etc., can be tested in a similar method.
(§2) Cells (SJSA-1, 786-0 and A431) were seeded (5000 cells/100 μL/well) in 96-well tissue culture plate and incubated at 37° C./500 CO2 for 16-24 hours. The cells were then treated with compounds (25 μL of 5×). The compound concentrations were 10-0.0005 μM prepared in 3-fold serial dilutions with final DMSO concentration of 1%. The plates were then incubated for 24 h at 37° C./[…] in a moist environment. Then Alamar Blue™ reagent (final concentration 1×-12.5 μL) was added to each well and incubated for 1.5 hours at 37° C./500 CO2. The plates were read on fluorescence reader at 540 nm excitation and 590 nm emission wavelengths. The IC50 values were subsequently determined using a sigmoidal dose-response curve (variable slope) in GraphPad Prism® 5 software. Tables A-3 and B-11 show cell proliferation data for exemplary compounds as described herein.
For orientation: Resazurin is reduced to fluorescent resorufin, in cell work by metabolically active cells.

Experiment [2] has as its system 786-O (renal cell carcinoma) cells. As to the kind of experiment: Cell proliferation (Alamar Blue) assay, 786-O cells. The format is cell-based. Conditions: Homo sapiens, 786-0, 786-O cells, Alamar Blue. The method, then: as §1, §2
[3] abbreviates: 24 h compound treatment, read-out: IC50 (μM) A431.
[4] abbreviates: 24 h compound treatment, read-out: IC50 (μM) 786-O.

For `CCCC[C@H]1Cc2cc(OC)ccc2[C@H](c2ccc(NC34CC5CC(CC(C5)C3)C4)c(Cl)c2)N1C(=O)C#C[Si](C)(C)C` [Compound A-46], the IC50 in experiment [1] (24 h compound incubation, read-out: Cell proliferation IC50 (μM) A431) is not below 10 µM; in experiment [2] (24 h compound incubation, read-out: Cell proliferation IC50 (μM) 786-O), 0.31 µM.
For `C#CC(=O)N1[C@@H](CCCC)Cc2cc(OC)ccc2[C@H]1c1ccc(NC23CC4CC(CC(C4)C2)C3)cc1` [Compound B-2], the IC50 in experiment [1] (setting [3]) was more than 1 µM; in experiment [2] (setting [4]), 0.192 µM.
Regarding `C#CC(=O)N1[C@@H](c2ccc(NC34CC5CC(CC(C5)C3)C4)cc2)c2ccc(OC)cc2C[C@@H]1C1CCC1` [Compound B-4], the IC50 in experiment [2] (setting [4]) was found to be 0.016 µM.
In the case of `C#CC(=O)N1[C@@H](CCCC)Cc2cc(OC)ccc2[C@@H]1C12CC(F)(C1)C2` [Compound B-5], the IC50 was more than 1 µM in experiment [1] (setting [3]) and 0.145 µM in experiment [2] (setting [4]).
Consider `C#CC(=O)N1[C@@H](CCCC)Cc2cc(OC)ccc2[C@H]1C12CC(F)(C1)C2` [Compound B-6], for which the values for the IC50 in experiment [1] (setting [3]) and in experiment [2] (setting [4]) were more than 1 µM and 0.067 µM, respectively.
Turning to `C#CC(=O)N1[C@@H](CCCC)Cc2cc(OC)ccc2[C@@H]1c1ccc(NC23CC4CC(CC(C4)C2)C3)c(C#N)c1` [Compound B-8], in experiment [2] (setting [4]), the IC50 is 0.021 µM.
As for `C#CC(=O)N1[C@@H](CCCC)Cc2cc(OC)ccc2[C@@H]1c1ccc(N2CCC(F)(F)C2)cc1` [Compound B-14], the IC50 is more than 1 µM in experiment [1] (setting [3]) and 0.06 µM in experiment [2] (setting [4]).
For `C#CC(=O)N1CCc2cc(OC)ccc2C1c1ccccc1` (stereo not drawn) [Compound B-24], in that order: 3.5 µM and 0.198 µM.
With `C#CC(=O)N1CCc2cc(OC)ccc2C1c1ccc(F)cc1` (stereo not drawn) [Compound B-26], the IC50 was more than 10 µM in experiment [1] (setting [3]) and 0.395 µM in experiment [2] (setting [4]).
Taken in the same sequence, the figures for `C#CC(=O)N1CCc2cc(OC)ccc2C1c1ccc(C#N)cc1` (stereo not drawn) [Compound B-28] were 7.5 µM and 0.18 µM.
Turning to `C#CC(=O)N1[C@@H](CCCC)Cc2cc(OC)ccc2[C@@H]1c1ccccc1` [Compound B-29], the results for the IC50 in experiment [1] (setting [3]) and in experiment [2] (setting [4]) were 8.73 µM and 0.037 µM, respectively.
Consider `C#CC(=O)N1[C@@H](CCCC)Cc2cc(OC)ccc2[C@@H]1c1ccc(C#N)cc1` [Compound B-31], for which the IC50 in experiment [1] (setting [3]) turned out to be 3.67 µM; in experiment [2] (setting [4]), 0.016 µM.
Taken in the same sequence, the figures for `C#CC(=O)N1[C@@H](c2ccc(C#N)cc2)c2ccc(OC)cc2C[C@@H]1C` [Compound B-32, 4-[(1S,3S)-6-methoxy-3-methyl-2-(prop-2-ynoyl)-1,2,3,4-tetrahydroisoquinolin-1-yl]benzonitrile] were 3.5 µM and 0.42 µM.
As for `C#CC(=O)N1[C@@H](CC2CC2)Cc2cc(OC)ccc2[C@@H]1c1ccc(C#N)cc1` [Compound B-37], the figures for the IC50 in experiment [1] (setting [3]) and in experiment [2] (setting [4]) were more than 10 µM and 0.049 µM, respectively.
For `C#CC(=O)N1[C@@H](COCC)Cc2cc(OC)ccc2[C@@H]1c1ccc(C#N)cc1` [Compound B-39], the values for the IC50 in experiment [1] (setting [3]) and in experiment [2] (setting [4]) were more than 10 µM and 0.195 µM, respectively.
`C#CC(=O)N1[C@@H](CCCC)Cc2cc(F)ccc2[C@@H]1c1ccc(NC23CC4CC(CC(C4)C2)C3)cc1` [Compound B-40]: the figures for the IC50 in experiment [1] (setting [3]) and in experiment [2] (setting [4]) were 4.52 µM and 0.006 µM, respectively.
Turning to `C#CC(=O)N1[C@@H](COC)Cc2cc(OC)ccc2[C@@H]1c1ccc(NC23CC4CC(CC(C4)C2)C3)cc1` [Compound B-41], the figures for the IC50 in experiment [1] (setting [3]) and in experiment [2] (setting [4]) were 3.88 µM and 0.0035 µM, respectively.
Taken in the same sequence, the figures for `C#CC(=O)N1[C@@H](CCCC)Cc2ccc(OC)cc2[C@@H]1c1ccc(NC23CC4CC(CC(C4)C2)C3)cc1` [Compound B-42, 1-((1S,3S)-1-(4-(((3R,5R,7R)-adamantan-1-yl)amino)phenyl)-3-butyl-7-methoxy-3,4-dihydroisoquinolin-2(1H)-yl)prop-2-yn-1-one] were 6.58 µM and 0.0145 µM.
Regarding `C#CC(=O)N1[C@@H](COC)Cc2cc(OC)ccc2[C@H]1c1ccc(NC23CC4CC(CC(C4)C2)C3)cc1` [Compound B-45], in experiment [2] (setting [4]), the IC50 is 0.047 µM.
The same measure, in the same setting: the figure for `C#CC(=O)N1[C@@H](CC2CC2)Cc2cc(OC)ccc2[C@@H]1c1ccc(NC23CC4CC(CC(C4)C2)C3)cc1` [Compound B-50] is 0.01 µM.
